# Measured values taken from ChEMBL document CHEMBL1201862, “PubChem BioAssay data set” (2004).
# The source made the active and inactive calls.
# What was measured:
# [1] = target: T1, Methionyl-tRNA synthetase, putative (Trypanosoma brucei brucei, UniProt Q38C91); format: functional, Trypanosoma brucei brucei strain 927/4 GUTat10.1
# T1 sequence (Q38C91 whole entry): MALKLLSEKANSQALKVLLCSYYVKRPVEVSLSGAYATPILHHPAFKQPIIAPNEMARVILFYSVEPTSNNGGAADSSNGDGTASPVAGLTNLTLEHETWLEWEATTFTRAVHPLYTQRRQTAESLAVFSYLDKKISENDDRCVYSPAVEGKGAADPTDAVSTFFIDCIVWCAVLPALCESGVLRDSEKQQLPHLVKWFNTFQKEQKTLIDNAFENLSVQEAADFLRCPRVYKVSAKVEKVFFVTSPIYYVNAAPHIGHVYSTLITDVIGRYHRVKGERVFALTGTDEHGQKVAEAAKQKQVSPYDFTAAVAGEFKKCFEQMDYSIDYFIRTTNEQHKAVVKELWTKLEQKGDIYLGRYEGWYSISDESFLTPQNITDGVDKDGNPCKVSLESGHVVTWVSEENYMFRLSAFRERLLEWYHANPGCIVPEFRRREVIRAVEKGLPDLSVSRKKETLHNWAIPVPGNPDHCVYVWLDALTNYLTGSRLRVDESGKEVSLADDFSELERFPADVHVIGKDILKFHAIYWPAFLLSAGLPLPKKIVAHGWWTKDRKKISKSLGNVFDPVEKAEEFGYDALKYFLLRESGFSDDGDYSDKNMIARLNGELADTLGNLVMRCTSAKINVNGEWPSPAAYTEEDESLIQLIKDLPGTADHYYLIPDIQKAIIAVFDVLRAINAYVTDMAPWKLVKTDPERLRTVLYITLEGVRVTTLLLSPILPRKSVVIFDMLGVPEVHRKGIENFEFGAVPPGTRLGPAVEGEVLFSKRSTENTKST
# [2] = Counterscreen for inhibitors of Trypanosoma brucei methionyl tRNA synthetase (MetRS): Luminescence-based cell-based high throughput dose response assay to identify compounds that are cytotoxic to Jurkat human T lymphocyte cells.; format: functional
# [3] = Late stage counterscreen for inhibitors of Trypanosoma brucei methionyl tRNA synthetase (MetRS): Luminescence-based cell-based high throughput dose response assay to identify compounds that are cytotoxic to Jurkat human T lymphocyte cells.; format: functional
# [4] = target: T1, Methionyl-tRNA synthetase, putative; format: functional, Trypanosoma brucei brucei strain 927/4 GUTat10.1; remark: listed apart in the source
# [5] = inhibitors of clade B AD8 Env fusion, dose response, cell-based, cherry-pick (AID 652062); format: functional;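 further: luciferase signal from cell-cell fusion driven by HIV-1 clade B AD8 Env; potency is for inhibitors of fusion seen as a drop in luminescence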
# Cytochrome P450 3A4 = Cytochrome P450 3A4 (Homo sapiens, UniProt P08684);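 further: CYP3A4 tested as one member of a cytochrome P450 panel screen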
# Sequence of Cytochrome P450 3A4 (P08684 whole entry): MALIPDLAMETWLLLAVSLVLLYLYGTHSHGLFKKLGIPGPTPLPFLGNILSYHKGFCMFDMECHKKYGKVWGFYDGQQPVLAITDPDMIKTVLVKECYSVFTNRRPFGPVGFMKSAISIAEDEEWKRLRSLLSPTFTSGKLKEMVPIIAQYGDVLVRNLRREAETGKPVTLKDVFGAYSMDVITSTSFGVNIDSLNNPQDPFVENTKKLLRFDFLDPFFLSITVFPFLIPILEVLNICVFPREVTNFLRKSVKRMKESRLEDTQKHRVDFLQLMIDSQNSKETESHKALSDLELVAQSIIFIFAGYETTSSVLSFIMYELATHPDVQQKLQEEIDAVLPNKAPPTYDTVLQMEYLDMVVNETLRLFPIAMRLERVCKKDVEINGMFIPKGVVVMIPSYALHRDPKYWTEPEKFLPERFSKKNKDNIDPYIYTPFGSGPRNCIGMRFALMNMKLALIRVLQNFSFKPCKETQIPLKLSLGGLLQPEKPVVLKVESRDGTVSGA
# Jurkat = assay: antigen receptor-induced NF-kB inhibitors, dose response, Jurkat, luciferase reporter, luminescence, B- and T-cell (AID 489004); format: functional, cell-based; conditions: Homo sapiens;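 further: NF-kB luciferase reporter Jurkat cells stimulated with PMA plus ionomycin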
# Galanin receptor type 3 = Galanin receptor type 3 (Homo sapiens, UniProt O60755); assay: Fluorescence-based cell-based primary high throughput dose response assay to identify antagonists of the Galanin Receptor 3 (GalR3).; format: functional
# Sequence of Galanin receptor type 3 (O60755 whole entry, the tested form may be a part): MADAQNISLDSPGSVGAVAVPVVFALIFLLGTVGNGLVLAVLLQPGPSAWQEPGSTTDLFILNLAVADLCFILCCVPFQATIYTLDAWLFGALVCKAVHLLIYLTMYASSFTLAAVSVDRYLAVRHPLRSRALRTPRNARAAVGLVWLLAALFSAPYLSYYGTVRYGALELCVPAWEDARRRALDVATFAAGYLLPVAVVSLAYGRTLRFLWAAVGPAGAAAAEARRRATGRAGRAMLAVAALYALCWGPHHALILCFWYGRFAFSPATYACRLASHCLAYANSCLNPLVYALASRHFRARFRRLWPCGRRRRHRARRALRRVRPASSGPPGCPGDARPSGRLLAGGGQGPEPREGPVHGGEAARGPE
# [6] = inhibitors of HIV Env-driven cell fusion, dose response, cherry-pick (AID 652057); format: functional, cell-based
# [7] = target: COUP transcription factor 2 (Homo sapiens, UniProt P24468); assay: Luminescence-based cell-based high throughput dose response assay to identify inhibitors of COUP-TFII (NR2F2).; format: functional;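 further: HEK293 cells transiently cotransfected with COUP-TFII expression vector and reporter; luciferase reporter luminescence driven by COUP-TFII from the pX2-168 reporter plasmid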
# Sequence of COUP transcription factor 2 (P24468 whole entry): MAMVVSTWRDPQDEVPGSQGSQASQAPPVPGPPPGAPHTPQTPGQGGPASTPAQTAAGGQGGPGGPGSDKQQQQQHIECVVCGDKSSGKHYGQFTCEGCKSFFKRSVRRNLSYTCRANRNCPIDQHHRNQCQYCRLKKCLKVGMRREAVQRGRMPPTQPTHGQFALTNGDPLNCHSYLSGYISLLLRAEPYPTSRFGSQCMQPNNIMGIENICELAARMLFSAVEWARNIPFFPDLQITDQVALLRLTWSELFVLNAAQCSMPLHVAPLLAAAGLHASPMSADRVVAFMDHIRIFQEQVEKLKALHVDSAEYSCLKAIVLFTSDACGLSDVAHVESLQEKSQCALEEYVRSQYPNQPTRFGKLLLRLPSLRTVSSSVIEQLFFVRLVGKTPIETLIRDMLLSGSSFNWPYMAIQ
# INS1 = assay: beta cell apoptosis inhibitors, cytokine rescue, dose response, luminescence, retest (AID 449756); format: functional, cell-based; conditions: Rattus norvegicus;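 further: cell death triggered by IL-1 beta plus TNF-alpha plus IFN-gamma mixture; protective hits raise ATP signal compared with cytokine alone wells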
# [8] = ZM109 Env clade C HIV-1 fusion inhibitors, dose response, HeLa effector, CEM target cells, luciferase, cherry-pick (AID 652058); format: functional, cell-based
# cells [9] = format: functional, cell-based; conditions: HEK-CNG
# [10] = cytotoxicity in HEK-293T NF-kB-Luc cells, dose response, cytotoxicity control for B/T-cell NF-kB inhibitor project, cell-based, uHTS hits (AID 489019); format: functional;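 further: IC50 reflects cytotoxicity as loss of cell viability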
# Cytochrome P450 2C19 = Cytochrome P450 2C19 (Homo sapiens, UniProt P33261); assay: Cytochrome panel assay with activity outcomes. Panel member name: p450-cyp2c19 Compounds with AC50 equal or less than 10 uM are considered active; format: functional; conditions: read-out: AC50
# Sequence of Cytochrome P450 2C19 (P33261 whole entry): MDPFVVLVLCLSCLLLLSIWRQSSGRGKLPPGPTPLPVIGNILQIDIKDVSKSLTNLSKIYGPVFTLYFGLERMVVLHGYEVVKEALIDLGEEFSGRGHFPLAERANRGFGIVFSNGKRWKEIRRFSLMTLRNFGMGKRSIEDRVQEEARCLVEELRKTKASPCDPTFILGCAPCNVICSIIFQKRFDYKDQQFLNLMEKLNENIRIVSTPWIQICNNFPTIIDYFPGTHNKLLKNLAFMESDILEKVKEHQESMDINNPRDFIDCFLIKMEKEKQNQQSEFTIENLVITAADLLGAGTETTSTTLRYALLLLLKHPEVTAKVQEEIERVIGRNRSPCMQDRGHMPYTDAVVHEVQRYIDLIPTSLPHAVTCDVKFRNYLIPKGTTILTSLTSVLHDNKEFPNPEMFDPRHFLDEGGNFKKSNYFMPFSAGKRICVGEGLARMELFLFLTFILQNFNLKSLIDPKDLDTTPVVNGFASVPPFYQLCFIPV
# [11] = target: NAD-dependent protein deacylase sirtuin-5, mitochondrial (Homo sapiens, UniProt Q9NXA8); assay: SIRT5 desuccinylase inhibitors, dose response, biochemical, fluorescence imaging, cherry-pick, set 5 (AID 720591);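 further: desuccinylation of succinyl peptide AMC substrate read as fluorescence after trypsin release; potency of inhibitors that lower fluorescence and may act on trypsin instead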
# Sequence of NAD-dependent protein deacylase sirtuin-5, mitochondrial (Q9NXA8 whole entry): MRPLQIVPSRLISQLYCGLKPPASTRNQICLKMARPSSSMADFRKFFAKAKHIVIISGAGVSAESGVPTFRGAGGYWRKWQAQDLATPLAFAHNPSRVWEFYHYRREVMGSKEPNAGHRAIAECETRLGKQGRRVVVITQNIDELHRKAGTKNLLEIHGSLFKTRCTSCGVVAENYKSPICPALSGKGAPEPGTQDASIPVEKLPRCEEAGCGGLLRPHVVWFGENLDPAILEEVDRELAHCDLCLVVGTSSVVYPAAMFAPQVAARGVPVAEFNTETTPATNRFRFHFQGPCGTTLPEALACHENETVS
# [12] = Artemis endonuclease inhibitor potency, dose response, biochemical, fluorescence intensity (AID 720701); format: functional;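 further: Artemis endonuclease enzyme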
# Bcl-2-like protein 10 = Bcl-2-like protein 10 (Homo sapiens, UniProt Q9HD36); assay: displacers of TR3 peptide from Bcl-B, primary screen, selectivity assay for Bfl-1 inhibitor project, biochemical, fluorescence polarization, FITC-TR3 peptide (AID 748);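 further: fluorescence polarization from a fluorescein-labelled TR3 peptide binding purified Bcl-B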
# Sequence of Bcl-2-like protein 10 (Q9HD36 whole entry): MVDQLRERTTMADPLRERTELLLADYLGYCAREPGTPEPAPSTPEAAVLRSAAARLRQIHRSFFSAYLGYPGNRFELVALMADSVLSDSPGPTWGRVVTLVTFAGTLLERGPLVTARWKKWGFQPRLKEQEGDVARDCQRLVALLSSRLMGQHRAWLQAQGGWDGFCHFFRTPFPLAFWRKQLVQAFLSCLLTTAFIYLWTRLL
# cells [13] = conditions: HEK293
# HeLa = assay: HeLa cell cytotoxicity, dose response, cytotoxicity control for MITF activator project, CellTiter-Glo luminescence, cherry-pick samples (AID 540259); format: functional, cell-based; conditions: Homo sapiens
# [14] = HepG2 cell cytotoxicity, dose response, cytotoxicity control, ATP luminescence, cherry-pick, set 6 (AID 1053125); format: functional, cell-based
# [15] = Jurkat T cell cytotoxicity, dose response, cytotoxicity control for P. falciparum gametocyte viability project, luminescence (AID 1117277); format: functional, cell-based;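 further: potency reflects loss of cellular ATP meaning fewer viable cells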
# [16] = P. falciparum late gametocyte killing, dose response, luminescence (AID 1117278); format: functional, cell-based;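 further: gametocytes exposed to compound for 24 hours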
# Kallikrein-7 = Kallikrein-7 (Homo sapiens, UniProt P49862); assay: Fluorescence Intensity-based biochemical primary high throughput dose response assay to identify activators of kallikrein-7 (K7) zymogen.
# Sequence of Kallikrein-7 (P49862 whole entry): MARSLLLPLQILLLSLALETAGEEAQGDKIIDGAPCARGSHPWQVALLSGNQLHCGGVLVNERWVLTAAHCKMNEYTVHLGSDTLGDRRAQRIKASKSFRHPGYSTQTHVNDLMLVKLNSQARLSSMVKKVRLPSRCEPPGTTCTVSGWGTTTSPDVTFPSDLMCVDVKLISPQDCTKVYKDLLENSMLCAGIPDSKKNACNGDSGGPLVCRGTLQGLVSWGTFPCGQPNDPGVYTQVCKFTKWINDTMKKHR
# [17] = IGROV1 ovarian cancer cell cytotoxicity, dose response, PAX8 inhibitor project, plate reader, dry powder samples (AID 743043); format: functional, cell-based; conditions: IGROV-1
# Paired box protein Pax-8 = Paired box protein Pax-8 (Homo sapiens, UniProt Q06710); assay: inhibitors of PAX8-driven TPO luciferase reporter, dose response, RMG-I cells, cherry-pick (AID 687027); format: functional, cell-based;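 further: luciferase reporter driven by Pax8 target thyroperoxidase promoter measured by SteadyGlo luminescence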
# Sequence of Paired box protein Pax-8 (Q06710 whole entry): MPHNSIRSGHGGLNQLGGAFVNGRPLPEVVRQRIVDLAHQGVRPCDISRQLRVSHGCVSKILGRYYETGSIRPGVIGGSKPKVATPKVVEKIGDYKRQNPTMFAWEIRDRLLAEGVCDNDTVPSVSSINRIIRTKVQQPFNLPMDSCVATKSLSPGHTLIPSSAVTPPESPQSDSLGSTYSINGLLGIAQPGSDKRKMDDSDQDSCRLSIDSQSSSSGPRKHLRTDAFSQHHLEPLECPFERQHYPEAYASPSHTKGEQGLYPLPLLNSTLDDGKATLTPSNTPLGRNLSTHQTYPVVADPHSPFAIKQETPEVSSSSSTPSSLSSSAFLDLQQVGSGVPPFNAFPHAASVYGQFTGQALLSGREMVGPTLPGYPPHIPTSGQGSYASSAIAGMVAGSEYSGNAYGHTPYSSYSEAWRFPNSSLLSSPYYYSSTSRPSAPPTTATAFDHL
# [18] = IOSE-T80 ovarian epithelial cell cytotoxicity, dose response, cytotoxicity control for PAX8 inhibitor project, plate reader, dry powder samples (AID 743045); format: functional, cell-based
# [19] = NIH:OVCAR-3 ovarian cancer cell cytotoxicity, dose response, PAX8 inhibitor project, plate reader, dry powder samples (AID 743044); format: functional, cell-based
# [20] = A2780 ovarian cancer cell cytotoxicity, dose response, cytotoxicity control, plate reader, dry powder samples (AID 743046); format: functional, cell-based
# [21] = cytotoxicity in OVCAR8 ovarian cancer cells, dose response, PAX8 project, cell-based, plate reader, dry powder samples (AID 743197); format: functional; conditions: OVCAR-8
structure (smiles),measurement,setting,value
CC(=O)c1ccc(N2CCN(C(=O)CCCn3c(=O)[nH]c4ccc(Br)cc4c3=O)CC2)cc1,IC50,[1],0.579 µM (active)
same,IC50,[2],53.2 µM (inactive)
same,IC50,[3],25.9 µM (inactive)
same,IC50,[4],1.48 µM (active)
Cc1cc(N2CCN(c3nc4ccccc4s3)CC2)n2ncnc2n1,AC50,[5],5.3 µM (active)
same,AC50,Cytochrome P450 3A4,39.8 µM (inconclusive)
same,IC50,Jurkat,> 80 µM (inactive)
same,IC50,Galanin receptor type 3,1.43 µM (active)
same,AC50,[6],4.63 µM (active)
same,IC50,[7],6.41 µM (active)
same,AC50,INS1,5.06 µM (active)
same,AC50,[8],6.41 µM (active)
same,EC50,cells [9],> 29.9 µM (inactive)
same,IC50,[10],> 80 µM (inactive)
same,AC50,Cytochrome P450 2C19,14.1 µM (inconclusive)
COc1ccc(-c2csc3ncnc(O)c23)cc1,AC50,[11],15.6 µM (active)
Cc1cc(-c2csc(N)n2)c(C)n1C,IC50,[12],> 20 µM (inactive)
same,IC50,Bcl-2-like protein 10,26 µM (active)
Nc1ccc(C#Cc2ccc3c(=O)c4ccccc4oc3c2)cc1,AC50,cells [13],> 52 µM (inactive)
same,AC50,HeLa,59.6 µM (active)
same,AC50,[14],> 52 µM (inactive)
O=C1N[C@@H](c2ccccc2)COC(=O)[C@@H](Cc2ccc(F)cc2)C/C=C\C[C@H]1CC(=O)N(CCO)Cc1ccccc1,IC50,[15],37.8 µM (inactive)
same,IC50,[16],> 109 µM (inactive)
COC(=O)c1ccc(N2C(c3cc(OC)cc(OC)c3)=Cc3ccc(-c4cccnc4)cc3C2CC(=O)C2CC2)cc1 (stereo not given),EC50,Kallikrein-7,38.9 µM (inactive)
C[C@@H]1CCCCO[C@H](CN(C)Cc2ccncc2)[C@H](C)CN([C@@H](C)CO)C(=O)c2cc(NC(=O)NC3CCCCC3)ccc2O1,AC50,[17],25.5 µM (active)
same,AC50,Paired box protein Pax-8,11.3 µM (active)
same,AC50,[18],36.7 µM (active)
same,AC50,[19],18.7 µM (active)
same,AC50,[20],36.1 µM (active)
same,AC50,[21],68.3 µM (active)
